Reference: patent US9949945B2, “3′ equatorial-fluorine-substituted neuraminidase inhibitor compounds, compositions and methods for the use thereof as anti-virals” (THE UNIVERSITY OF BRITISH COLUMBIA, priority 2012, dated 2018)
Where two headings read alike, the source gives them in different places.

Columns and labels:
Assay type in all cases: biochemical
[1] = target: B/Florida E119D (B/Florida/4/2006 mutant 1 E117D) NA (Influenza B virus, UniProt J7JZT1, E117D)
[2] = target: A/Fukui H3N2 E119V (oseltamivir-resistant) NA (Influenza A virus, UniProt A0A0F6NYK2, E119V); conditions: read-out: IC50 in the enzyme inhibition assay, A/Fukui H3N2 E119V
[3] = target: Sol Isl sH1N1 E119A (A/Solomon Islands/3/2006 mutant) NA (Influenza A virus, UniProt B4URD9, E119A)
[4] = target: sH1N1/01 H275Y (A/Mississippi/3/01 oseltamivir-resistant) NA (Influenza A virus, UniProt Q3M0T6, H275Y)

| Substance | IC50 [1] [µM] | IC50 [2] [µM] | IC50 [3] [µM] | IC50 ([4]; read-out: IC50 in the enzyme inhibition assay, A/Mississippi H1N1 H275Y) [µM] | IC50 ([4]; read-out: IC50 sH1N/01 H275Y) [µM] |
| --- | --- | --- | --- | --- | --- |
| Oseltamivir | 1.21 | 0.26 | – | – | – |
| Zanamivir | – | – | > 10 | 0.0022 | 0.0022 |
